According to publication PMC11233931, “Remodeling tumor‐associated macrophage for anti‐cancer effects by rational design of irreversible inhibition of mitogen‐activated protein kinase‐activated protein kinase 2” (MedComm, 2024):
Like-named read-outs stand apart in the source and are kept apart here.

Experiments:
Experiment in all cases: Eurofins kinase selectivity profile against 380 other human recombinant kinases (Table S2)
Assay type in all cases: biochemical
[1] = biological target: T1, 380 human recombinant protein kinases (Homo sapiens, UniProt P30530); conditions: Axl(h), read-out: Inhibition rate
T1 construct: purchased Eurofins (Celle Lévescault)
T1 sequence (P30530 26-894): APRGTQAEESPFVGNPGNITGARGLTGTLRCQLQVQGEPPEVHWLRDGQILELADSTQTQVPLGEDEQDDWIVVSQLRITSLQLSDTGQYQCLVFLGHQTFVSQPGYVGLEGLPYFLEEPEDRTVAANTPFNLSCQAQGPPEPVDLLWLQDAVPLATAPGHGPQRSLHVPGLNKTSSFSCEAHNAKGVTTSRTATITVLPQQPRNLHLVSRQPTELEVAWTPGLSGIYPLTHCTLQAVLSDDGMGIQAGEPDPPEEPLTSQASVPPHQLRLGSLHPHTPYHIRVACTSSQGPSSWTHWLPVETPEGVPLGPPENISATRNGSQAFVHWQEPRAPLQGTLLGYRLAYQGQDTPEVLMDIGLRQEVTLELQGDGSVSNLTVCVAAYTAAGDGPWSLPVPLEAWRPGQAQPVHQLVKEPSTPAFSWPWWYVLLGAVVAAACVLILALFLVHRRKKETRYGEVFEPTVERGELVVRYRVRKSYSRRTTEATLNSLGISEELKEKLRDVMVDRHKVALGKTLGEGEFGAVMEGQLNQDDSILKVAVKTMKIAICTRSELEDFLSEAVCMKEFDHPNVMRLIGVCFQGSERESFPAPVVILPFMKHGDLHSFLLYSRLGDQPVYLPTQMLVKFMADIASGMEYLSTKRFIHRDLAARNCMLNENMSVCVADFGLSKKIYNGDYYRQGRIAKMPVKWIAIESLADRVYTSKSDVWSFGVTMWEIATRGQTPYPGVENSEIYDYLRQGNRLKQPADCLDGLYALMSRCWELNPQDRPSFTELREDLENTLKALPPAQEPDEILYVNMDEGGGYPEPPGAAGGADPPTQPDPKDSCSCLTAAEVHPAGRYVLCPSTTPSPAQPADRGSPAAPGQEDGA
In short: (§1)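 Commercial selectivity screen of the test compound against a panel of 380 human recombinant protein kinases, run by an outside contractor at several compound concentrations to check whether its potency was specific for MK2.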

[2] = biological target: T2, 380 human recombinant protein kinases (Homo sapiens, UniProt P20794); conditions: MAK(h), read-out: Inhibition rate
T2 construct: purchased Eurofins (Celle Lévescault)
T2 sequence (P20794 1-623): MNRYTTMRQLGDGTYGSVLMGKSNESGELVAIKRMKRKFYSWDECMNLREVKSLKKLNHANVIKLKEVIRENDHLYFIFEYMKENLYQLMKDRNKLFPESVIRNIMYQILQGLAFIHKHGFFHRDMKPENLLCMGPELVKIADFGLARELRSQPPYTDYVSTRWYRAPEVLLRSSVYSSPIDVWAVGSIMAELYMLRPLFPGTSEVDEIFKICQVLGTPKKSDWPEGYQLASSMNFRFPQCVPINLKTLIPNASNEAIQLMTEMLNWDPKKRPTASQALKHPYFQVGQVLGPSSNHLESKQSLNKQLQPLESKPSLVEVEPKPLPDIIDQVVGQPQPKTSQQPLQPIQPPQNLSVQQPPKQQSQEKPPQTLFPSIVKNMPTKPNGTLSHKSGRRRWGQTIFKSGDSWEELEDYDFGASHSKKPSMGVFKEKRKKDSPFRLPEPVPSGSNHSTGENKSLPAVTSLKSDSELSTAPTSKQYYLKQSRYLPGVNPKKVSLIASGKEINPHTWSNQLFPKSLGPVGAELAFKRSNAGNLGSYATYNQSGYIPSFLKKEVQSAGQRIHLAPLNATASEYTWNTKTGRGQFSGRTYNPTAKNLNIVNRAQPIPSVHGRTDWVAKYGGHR
In short: as §1

[3] = biological target: T3, 380 human recombinant protein kinases (Homo sapiens, UniProt Q9NSY1); conditions: BIKe(h), read-out: Inhibition rate
T3 construct: purchased Eurofins (Celle Lévescault)
In short: as §1

[4] = biological target: T4, 380 human recombinant protein kinases (Homo sapiens, UniProt Q13557); conditions: CaMKIIδ(h), read-out: Inhibition rate
T4 construct: purchased Eurofins (Celle Lévescault)
In short: as §1

[5] = biological target: T5, 380 human recombinant protein kinases (Homo sapiens, UniProt P49759); conditions: CLK1(h), read-out: Inhibition rate
T5 construct: purchased Eurofins (Celle Lévescault)
In short: as §1

[6] = biological target: T6, 380 human recombinant protein kinases (Homo sapiens, UniProt Q13464); conditions: ROCK-I(h), read-out: Inhibition rate
T6 construct: purchased Eurofins (Celle Lévescault)
In short: as §1

[7] = biological target: T7, 380 human recombinant protein kinases (Homo sapiens, UniProt P07947); conditions: Yes(h), read-out: Inhibition rate (%)
T7 construct: purchased Eurofins (Celle Lévescault)
In short: as §1

[8] = biological target: T8, 380 human recombinant protein kinases (Homo sapiens, UniProt P42336); conditions: read-out: Inhibition rate (%); for inhibition at 0.01 µM: 10 nM; for inhibition at 0.1 µM: 100 nM; for inhibition at 1 µM: 1000 nM
T8 construct: purchased Eurofins (Celle Lévescault)
In short: as §1

[9] = biological target: T9, 380 human recombinant protein kinases (Homo sapiens, UniProt Q15303); conditions: ErbB4(h), read-out: Inhibition rate
T9 construct: purchased Eurofins (Celle Lévescault)
In short: as §1

T8 sequence (P42336 whole entry): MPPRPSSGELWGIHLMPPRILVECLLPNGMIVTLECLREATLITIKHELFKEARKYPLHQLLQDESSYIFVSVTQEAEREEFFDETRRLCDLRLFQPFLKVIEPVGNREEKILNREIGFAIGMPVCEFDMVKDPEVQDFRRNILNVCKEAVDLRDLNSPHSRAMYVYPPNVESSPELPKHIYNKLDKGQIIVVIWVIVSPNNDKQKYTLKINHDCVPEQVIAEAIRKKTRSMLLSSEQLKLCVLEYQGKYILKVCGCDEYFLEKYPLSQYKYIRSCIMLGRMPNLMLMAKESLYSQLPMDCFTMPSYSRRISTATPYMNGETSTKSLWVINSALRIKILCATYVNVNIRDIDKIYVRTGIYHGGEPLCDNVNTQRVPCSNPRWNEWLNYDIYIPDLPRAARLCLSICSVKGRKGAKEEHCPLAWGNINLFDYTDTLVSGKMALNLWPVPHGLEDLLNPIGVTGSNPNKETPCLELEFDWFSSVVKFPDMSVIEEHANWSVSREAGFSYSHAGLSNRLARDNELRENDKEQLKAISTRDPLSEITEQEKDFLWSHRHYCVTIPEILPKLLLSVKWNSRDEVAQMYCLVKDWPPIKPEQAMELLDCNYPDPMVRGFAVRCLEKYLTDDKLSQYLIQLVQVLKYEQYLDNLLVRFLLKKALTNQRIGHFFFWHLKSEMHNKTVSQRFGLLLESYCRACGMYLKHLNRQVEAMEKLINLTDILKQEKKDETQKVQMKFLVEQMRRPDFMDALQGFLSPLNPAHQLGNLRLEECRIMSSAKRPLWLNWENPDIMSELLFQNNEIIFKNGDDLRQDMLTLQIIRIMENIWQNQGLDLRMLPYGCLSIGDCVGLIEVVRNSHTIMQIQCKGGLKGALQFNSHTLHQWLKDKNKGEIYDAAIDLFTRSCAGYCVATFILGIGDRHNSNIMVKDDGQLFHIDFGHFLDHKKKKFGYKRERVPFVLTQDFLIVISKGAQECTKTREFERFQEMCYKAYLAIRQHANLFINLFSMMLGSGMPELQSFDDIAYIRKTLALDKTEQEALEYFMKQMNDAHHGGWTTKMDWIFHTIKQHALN
T9 sequence (Q15303 26-1308): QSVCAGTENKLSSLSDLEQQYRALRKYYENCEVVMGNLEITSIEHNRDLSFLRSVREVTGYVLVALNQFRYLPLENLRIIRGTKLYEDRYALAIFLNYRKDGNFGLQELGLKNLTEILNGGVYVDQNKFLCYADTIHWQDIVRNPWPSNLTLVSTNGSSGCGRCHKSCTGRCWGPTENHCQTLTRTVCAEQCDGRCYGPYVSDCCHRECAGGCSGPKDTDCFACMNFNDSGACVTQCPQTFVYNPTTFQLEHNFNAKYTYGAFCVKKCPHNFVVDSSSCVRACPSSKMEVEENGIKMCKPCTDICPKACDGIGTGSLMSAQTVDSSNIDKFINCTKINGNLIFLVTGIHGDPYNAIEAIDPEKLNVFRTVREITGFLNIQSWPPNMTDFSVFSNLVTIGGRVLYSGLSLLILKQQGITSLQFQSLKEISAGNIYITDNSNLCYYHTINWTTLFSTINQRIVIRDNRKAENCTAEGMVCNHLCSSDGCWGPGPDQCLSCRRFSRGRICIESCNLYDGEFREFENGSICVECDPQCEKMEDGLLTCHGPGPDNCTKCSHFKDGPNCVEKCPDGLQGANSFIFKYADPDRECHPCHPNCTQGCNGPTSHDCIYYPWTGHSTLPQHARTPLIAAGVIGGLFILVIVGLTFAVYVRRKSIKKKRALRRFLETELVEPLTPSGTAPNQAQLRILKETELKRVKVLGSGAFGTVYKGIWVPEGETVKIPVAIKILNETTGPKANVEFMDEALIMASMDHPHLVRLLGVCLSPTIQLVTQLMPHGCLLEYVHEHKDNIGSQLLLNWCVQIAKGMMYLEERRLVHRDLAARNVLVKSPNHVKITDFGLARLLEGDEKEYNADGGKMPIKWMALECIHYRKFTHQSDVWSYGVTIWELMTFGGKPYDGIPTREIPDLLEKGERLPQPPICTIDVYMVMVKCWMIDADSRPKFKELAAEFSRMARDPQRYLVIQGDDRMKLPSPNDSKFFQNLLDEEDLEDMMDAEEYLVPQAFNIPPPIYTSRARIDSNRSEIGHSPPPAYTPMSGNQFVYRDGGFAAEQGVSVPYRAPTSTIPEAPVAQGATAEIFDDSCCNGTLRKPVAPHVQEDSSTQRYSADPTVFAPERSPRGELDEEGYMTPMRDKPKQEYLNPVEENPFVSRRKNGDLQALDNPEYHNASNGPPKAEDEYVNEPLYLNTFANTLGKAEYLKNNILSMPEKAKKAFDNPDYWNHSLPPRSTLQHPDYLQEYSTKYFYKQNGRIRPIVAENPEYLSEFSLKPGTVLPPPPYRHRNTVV
T7 sequence (P07947 whole entry): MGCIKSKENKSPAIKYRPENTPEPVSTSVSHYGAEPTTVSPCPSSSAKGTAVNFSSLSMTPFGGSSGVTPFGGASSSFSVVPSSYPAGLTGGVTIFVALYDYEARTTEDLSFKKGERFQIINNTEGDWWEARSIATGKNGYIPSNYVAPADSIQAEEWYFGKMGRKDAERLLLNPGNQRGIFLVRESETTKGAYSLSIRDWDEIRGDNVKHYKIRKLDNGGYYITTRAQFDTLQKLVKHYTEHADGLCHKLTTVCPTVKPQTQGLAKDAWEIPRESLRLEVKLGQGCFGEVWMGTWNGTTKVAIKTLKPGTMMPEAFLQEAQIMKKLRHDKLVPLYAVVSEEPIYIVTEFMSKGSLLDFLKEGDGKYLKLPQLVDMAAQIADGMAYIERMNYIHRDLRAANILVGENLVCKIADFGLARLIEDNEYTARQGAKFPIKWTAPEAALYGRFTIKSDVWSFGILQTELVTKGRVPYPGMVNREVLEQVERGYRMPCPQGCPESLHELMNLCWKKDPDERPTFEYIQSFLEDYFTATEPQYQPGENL
T3 sequence (Q9NSY1 whole entry): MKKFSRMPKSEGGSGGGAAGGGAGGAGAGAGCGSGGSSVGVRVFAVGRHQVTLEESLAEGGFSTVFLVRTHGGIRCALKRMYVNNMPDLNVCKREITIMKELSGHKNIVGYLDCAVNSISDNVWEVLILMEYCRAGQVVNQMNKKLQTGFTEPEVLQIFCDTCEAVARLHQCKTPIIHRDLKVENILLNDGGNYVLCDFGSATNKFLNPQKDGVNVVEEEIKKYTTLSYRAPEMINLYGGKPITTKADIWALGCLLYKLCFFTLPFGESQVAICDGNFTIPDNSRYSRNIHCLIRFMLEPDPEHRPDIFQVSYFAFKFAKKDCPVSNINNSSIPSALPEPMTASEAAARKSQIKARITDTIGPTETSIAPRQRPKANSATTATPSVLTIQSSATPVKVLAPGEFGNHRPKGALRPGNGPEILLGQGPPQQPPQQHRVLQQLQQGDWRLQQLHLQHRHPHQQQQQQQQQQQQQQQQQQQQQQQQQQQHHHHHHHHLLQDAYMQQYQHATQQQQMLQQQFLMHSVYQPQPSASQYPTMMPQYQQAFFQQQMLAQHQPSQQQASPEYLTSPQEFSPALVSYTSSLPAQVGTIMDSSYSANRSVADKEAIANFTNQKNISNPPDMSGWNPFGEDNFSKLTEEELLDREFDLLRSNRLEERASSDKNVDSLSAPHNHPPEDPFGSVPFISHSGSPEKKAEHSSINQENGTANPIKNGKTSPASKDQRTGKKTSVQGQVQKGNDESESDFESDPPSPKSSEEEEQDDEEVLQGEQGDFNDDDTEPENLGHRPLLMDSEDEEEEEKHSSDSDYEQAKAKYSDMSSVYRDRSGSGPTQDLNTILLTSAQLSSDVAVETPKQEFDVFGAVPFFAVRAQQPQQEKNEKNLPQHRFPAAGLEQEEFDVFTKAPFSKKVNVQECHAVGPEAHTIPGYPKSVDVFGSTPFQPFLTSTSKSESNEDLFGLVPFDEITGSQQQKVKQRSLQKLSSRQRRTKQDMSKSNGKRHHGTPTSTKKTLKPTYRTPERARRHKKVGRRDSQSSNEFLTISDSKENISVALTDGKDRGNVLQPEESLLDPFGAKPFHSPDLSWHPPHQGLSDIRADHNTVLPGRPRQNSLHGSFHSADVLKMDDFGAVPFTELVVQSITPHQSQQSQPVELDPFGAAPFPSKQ
T4 sequence (Q13557 whole entry): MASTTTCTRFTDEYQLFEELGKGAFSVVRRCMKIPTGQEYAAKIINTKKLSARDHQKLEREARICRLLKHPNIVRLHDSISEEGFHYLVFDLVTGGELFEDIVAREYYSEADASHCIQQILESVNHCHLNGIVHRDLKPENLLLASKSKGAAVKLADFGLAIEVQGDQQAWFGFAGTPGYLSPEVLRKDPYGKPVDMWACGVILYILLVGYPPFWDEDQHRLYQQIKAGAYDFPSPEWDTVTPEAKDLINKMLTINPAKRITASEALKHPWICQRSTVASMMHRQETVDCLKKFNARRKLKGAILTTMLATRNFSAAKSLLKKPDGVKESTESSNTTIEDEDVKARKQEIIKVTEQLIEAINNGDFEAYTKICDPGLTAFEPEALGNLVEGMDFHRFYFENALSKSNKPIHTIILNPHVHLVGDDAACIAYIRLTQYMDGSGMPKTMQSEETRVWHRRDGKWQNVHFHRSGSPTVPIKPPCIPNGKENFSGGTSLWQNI
T5 sequence (P49759 whole entry): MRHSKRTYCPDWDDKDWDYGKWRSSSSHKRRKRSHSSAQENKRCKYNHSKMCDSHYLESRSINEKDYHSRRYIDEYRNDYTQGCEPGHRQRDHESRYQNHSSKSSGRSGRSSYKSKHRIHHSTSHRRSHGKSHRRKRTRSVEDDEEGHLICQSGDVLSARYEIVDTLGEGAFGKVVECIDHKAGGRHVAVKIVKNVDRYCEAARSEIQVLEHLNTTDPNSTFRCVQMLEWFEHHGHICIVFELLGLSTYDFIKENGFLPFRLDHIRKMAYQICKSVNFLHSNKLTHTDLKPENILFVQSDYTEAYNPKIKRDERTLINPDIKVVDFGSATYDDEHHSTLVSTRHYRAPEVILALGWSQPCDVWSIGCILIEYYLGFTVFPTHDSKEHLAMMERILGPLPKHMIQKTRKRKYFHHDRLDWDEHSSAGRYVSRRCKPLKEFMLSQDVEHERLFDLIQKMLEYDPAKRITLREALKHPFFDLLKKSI

Compound `C=CC(=O)Nc1cc(-c2cc(-c3cc4c([nH]3)CCNC4=O)ccn2)ccc1OC(F)(F)F` [compound 11] has an inhibition at 0.01 µM ([1]; 10 nM) of -21%, an inhibition at 0.1 µM ([1]; 100 nM) of -6% and an inhibition at 1 µM ([1]; 1000 nM) of 26%. For the same compound, the inhibition at 0.01 µM ([2]; 10 nM) was -9%, the inhibition at 0.1 µM ([2]; 100 nM) was -1% and the inhibition at 1 µM ([2]; 1000 nM) was -2%. For the same compound, the inhibition at 0.01 µM ([3]; 10 nM) was 0%, the inhibition at 0.1 µM ([3]; 100 nM) was 18% and the inhibition at 1 µM ([3]; 1000 nM) was 48%. It also gave an inhibition at 0.01 µM ([4]; 10 nM) of -7%, an inhibition at 0.1 µM ([4]; 100 nM) of 11% and an inhibition at 1 µM ([4]; 1000 nM) of 20%. The inhibition at 0.01 µM ([5]; 10 nM) was -7%, the inhibition at 0.1 µM ([5]; 100 nM) was 12% and the inhibition at 1 µM ([5]; 1000 nM) was 70%. The inhibition at 0.01 µM ([6]; 10 nM) was 2%, the inhibition at 0.1 µM ([6]; 100 nM) was -1% and the inhibition at 1 µM ([6]; 1000 nM) was -7%. It also gave an inhibition at 0.01 µM ([7]; 10 nM) of -2%, an inhibition at 0.1 µM ([7]; 100 nM) of 0% and an inhibition at 1 µM ([7]; 1000 nM) of -3%. For the same compound, the inhibition at 0.01 µM ([8]; PI3 Kinase (p110α/p65α)(h)) was 3%, the inhibition at 0.1 µM ([8]; PI3 Kinase (p110α/p65α)(h)) was 0% and the inhibition at 1 µM ([8]; PI3 Kinase (p110α/p65α)(h)) was 1%. It also gave an inhibition at 0.01 µM ([8]; PI3 Kinase (p110α/p85α)(h)) of -1%, an inhibition at 0.1 µM ([8]; PI3 Kinase (p110α/p85α)(h)) of 0% and an inhibition at 1 µM ([8]; PI3 Kinase (p110α/p85α)(h)) of -1%. The inhibition at 0.01 µM ([9]; 10 nM) was -15%, the inhibition at 0.1 µM ([9]; 100 nM) was -3% and the inhibition at 1 µM ([9]; 1000 nM) was 6%.
